Laboratory results: PubChem BioAssay AID328 (DTP/NCI, 2004)
Several values for one entry are separate records, joined by “and”; a condition that tells them apart may be missing. Equal values may be shown once. Toxic doses and inconclusive results are not listed. Rule for the calls: active = survival T/C of 150% or more; inactive = T/C below 125% in these data.

Tested on: BDF1 mice, P388 leukemia ip, median survival T/C
Experiment: NCI In Vivo Anticancer Drug Screen. Data for tumor model P388 Leukemia (intraperitoneal) in B6D2F1 (BDF1) mice
Conditions: endpoint: median survival time, higher = longer survival
Procedure, shortened: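 Transplantable tumour in mice; compound vs vehicle dosing; survival scored; ratio of treated to control reported.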

[1] = dose: 50.0 mg/kg/injection, schedule: Q01DX009 (ip), vehicle: Klucel (hydroxypropylcellulose) (HPC)
[2] = dose: 100.0 mg/kg/injection, schedule: Q01DX009 (ip), vehicle: Klucel (hydroxypropylcellulose) (HPC)
[3] = dose: 100.0 mg/kg/injection, schedule: Q01DX009 (ip), vehicle: saline with Tween-80
[4] = dose: 400.0 mg/kg/injection, schedule: Q04DX003 (ip), vehicle: saline with Tween-80
[5] = dose: 50.0 mg/kg/injection, schedule: Q01DX009 (ip), vehicle: saline with Tween-80
[6] = dose: 50.0 mg/kg/injection, schedule: Q04DX003 (ip), vehicle: saline with Tween-80
[7] = dose: 100.0 mg/kg/injection, schedule: Q04DX003 (ip), vehicle: saline with Tween-80
[8] = dose: 200.0 mg/kg/injection, schedule: Q04DX003 (ip), vehicle: saline with Tween-80
[9] = dose: 100.0 mg/kg/injection, schedule: Q04DX003 (ip), vehicle: saline
[10] = dose: 200.0 mg/kg/injection, schedule: Q04DX003 (ip), vehicle: saline

Measured: T/C

CC1N2C3(c4ccccc4)OC(c4ccccc4)(c4ccccc43)C12c1ccccc1 (stereo not drawn)
inactive: [1] 104 % of control | [2] 100 % of control | dose: 200.0 mg/kg/injection, schedule: Q01DX009 (ip), vehicle: Klucel (hydroxypropylcellulose) (HPC) 89 % of control

C[C@]12CC[C@H]3[C@@H](CCC4=CC(=O)CC[C@@]43C)[C@@H]1CC[C@@H]2OC(=O)Cc1ccc(N(CCCl)CCCl)cc1
inactive: dose: 64.0 mg/kg/injection, schedule: Q01DX009 (ip), vehicle: Klucel (hydroxypropylcellulose) (HPC) 104 % of control and 105 % of control | [3] 113 % of control | dose: 128.0 mg/kg/injection, schedule: Q01DX009 (ip), vehicle: Klucel (hydroxypropylcellulose) (HPC) 111 % of control and 123 % of control | dose: 264.0 mg/kg/injection, schedule: Q04DX003 (ip), vehicle: saline with Tween-80 120 % of control | dose: 512.0 mg/kg/injection, schedule: Q01DX009 (ip), vehicle: Klucel (hydroxypropylcellulose) (HPC) 115 % of control
active: dose: 256.0 mg/kg/injection, schedule: Q01DX009 (ip), vehicle: Klucel (hydroxypropylcellulose) (HPC) 157 % of control | dose: 400.0 mg/kg/injection, schedule: Q01DX009 (ip), vehicle: saline with Tween-80 209 % of control | [4] 154 % of control | dose: 600.0 mg/kg/injection, schedule: Q04DX003 (ip), vehicle: saline with Tween-80 200 % of control

CCCCn1nnc2c(NN)nc(N)nc21
inactive: dose: 25.0 mg/kg/injection, schedule: Q01DX009 (ip), vehicle: saline with Tween-80 100 % of control | dose: 25.0 mg/kg/injection, schedule: Q04DX003 (ip), vehicle: saline with Tween-80 100 % of control | [5] 100 % of control | [6] 100 % of control | [7] 100 % of control

[O-][n+]1ccc(Cl)c2ccsc21
inactive: [6] 95 % of control | [7] 95 % of control | [8] 90 % of control and 104 % of control | [4] 86 % of control

COC1OC(COS(=O)(=O)c2ccc(C)cc2)C2OC(C)(C)OC12 (stereo not drawn)
inactive: [1] 104 % of control | [2] 90 % of control | dose: 400.0 mg/kg/injection, schedule: Q01DX009 (ip), vehicle: Klucel (hydroxypropylcellulose) (HPC) 90 % of control

O=C(O)c1nc2nc(Cl)c(Cl)nc2[nH]1
inactive: dose: 50.0 mg/kg/injection, schedule: Q04DX003 (ip), vehicle: saline 111 % of control | [9] 97 % of control | [10] 116 % of control

CCOC(=O)CCC[P+](c1ccccc1)(c1ccccc1)c1ccccc1
inactive: dose: 5.0 mg/kg/injection, schedule: Q01DX009 (ip), vehicle: saline with Tween-80 101 % of control | dose: 10.0 mg/kg/injection, schedule: Q01DX009 (ip), vehicle: saline with Tween-80 100 % of control | dose: 13.2 mg/kg/injection, schedule: Q01DX009 (ip), vehicle: saline with Tween-80 118 % of control | dose: 20.0 mg/kg/injection, schedule: Q01DX009 (ip), vehicle: saline with Tween-80 101 % of control and 122 % of control | dose: 30.0 mg/kg/injection, schedule: Q01DX009 (ip), vehicle: saline with Tween-80 118 % of control | [5] 113 % of control | [3] 118 % of control | [7] 110 % of control | dose: 160.0 mg/kg/injection, schedule: Q01DX009 (ip), vehicle: saline with Tween-80 121 % of control | [8] 115 % of control
active: dose: 75.0 mg/kg/injection, schedule: Q01DX009 (ip), vehicle: saline with Tween-80 152 % of control

CCOC(=O)C(=CN1CCOCC1)C(=O)OCC
inactive: [7] 100 % of control | [8] 100 % of control | [4] 109 % of control

Nc1cccc(OCCCCCOc2cccc(N)c2)c1
inactive: dose: 12.5 mg/kg/injection, schedule: Q01DX009 (ip), vehicle: Klucel (hydroxypropylcellulose) (HPC) 96 % of control | dose: 25.0 mg/kg/injection, schedule: Q01DX009 (ip), vehicle: Klucel (hydroxypropylcellulose) (HPC) 108 % of control | [1] 94 % of control

CCOC(=O)C1CC(=O)c2ccccc2C1 (stereo not drawn)
inactive: dose: 12.5 mg/kg/injection, schedule: Q01DX009 (ip), vehicle: other 87 % of control | dose: 100.0 mg/kg/injection, schedule: Q01DX009 (ip), vehicle: other 96 % of control | dose: 200.0 mg/kg/injection, schedule: Q01DX009 (ip), vehicle: other 110 % of control

Nc1ccn[nH]1
inactive: dose: 100.0 mg/kg/injection, schedule: Q01DX009 (ip), vehicle: saline 100 % of control | [9] 100 % of control | dose: 200.0 mg/kg/injection, schedule: Q01DX009 (ip), vehicle: saline 100 % of control | [10] 109 % of control | dose: 400.0 mg/kg/injection, schedule: Q01DX009 (ip), vehicle: saline 118 % of control | dose: 400.0 mg/kg/injection, schedule: Q04DX003 (ip), vehicle: saline 122 % of control

NC1=NC(=S)C2N=C(N=Nc3ccc(C(=O)NC(CCC(=O)O)C(=O)O)cc3)N=C2N1 (stereo not drawn)
inactive: dose: 1.56 mg/kg/injection, schedule: Q01DX009 (ip), vehicle: Klucel (hydroxypropylcellulose) (HPC) 120 % of control | dose: 3.13 mg/kg/injection, schedule: Q01DX009 (ip), vehicle: Klucel (hydroxypropylcellulose) (HPC) 91 % of control | dose: 6.25 mg/kg/injection, schedule: Q01DX009 (ip), vehicle: Klucel (hydroxypropylcellulose) (HPC) 87 % of control | dose: 25.0 mg/kg/injection, schedule: Q04DX003 (ip), vehicle: Klucel (hydroxypropylcellulose) (HPC) 120 % of control | dose: 50.0 mg/kg/injection, schedule: Q04DX003 (ip), vehicle: Klucel (hydroxypropylcellulose) (HPC) 112 % of control
